Results reported in patent US11753378B2, “Ketamine compounds and processes for making and using them” (Zevra Therapeutics, Inc., priority 2021, dated 2023).

How the values were obtained:
[1] = Pharmacokinetics of ketamine and norketamine in plasma after oral gavage; settings: for norketamine exposure relative to ketamine exposure compared to unconjugated ketamine / release of ketamine compared to unconjugated ketamine: in words; for release of ketamine compared to unconjugated ketamine: administered orally
[2] = Pharmacokinetics of ketamine and norketamine in plasma after intranasal administration
NMDA receptor = settings: cited from earlier work
[3] = analyte ketamine, oral, mean conjugate parameter/mean comparator parameter
[4] = analyte norketamine, oral, mean conjugate parameter/mean comparator parameter
[5] = oral gavage, ketamine % parameter/norketamine % parameter

Compound: CC(C)[C@H](NC(=O)c1ccc[n+](COC(=O)N(C)C2(c3ccccc3Cl)CCCCC2=O)c1)C(=O)O (stereo partly shown) [10d, KTM-CO2CH2-nicotinoyl-Val]
- norketamine exposure relative to ketamine exposure compared to unconjugated ketamine ([1]; oral): reduced norketamine exposure relative to ketamine exposure

Compound: CC(C)[C@H](NC(=O)c1ccc[n+](COC(=O)N(C)[C@]2(c3ccccc3Cl)CCCCC2=O)c1)C(=O)O [S-10d, (S)-KTM-CO2CH2-nicotinoyl-Val]
- norketamine exposure relative to ketamine exposure compared to unconjugated ketamine ([1]; oral): reduced norketamine exposure relative to ketamine exposure

Compound: CN(C(=O)OCOC(=O)c1ccncc1)C1(c2ccccc2Cl)CCCCC1=O.Cl (stereo not shown) [3b, Isonicotinate-CH2OCO-KTM HCl]
- norketamine exposure relative to ketamine exposure compared to unconjugated ketamine ([1]; oral): reduced norketamine exposure relative to ketamine exposure

Compound: CN(CC(=O)O)C(=O)c1cc[n+](COC(=O)N(C)C2(c3ccccc3Cl)CCCCC2=O)cc1 (stereo not shown) [11b, KTM-CO2CH2-isonicotinoyl-Sar]
- release of ketamine compared to unconjugated ketamine [1]: extended or delayed release
- norketamine exposure relative to ketamine exposure compared to unconjugated ketamine ([1]; oral): reduced norketamine exposure relative to ketamine exposure

Compound: CCOC(=O)CN(C)C(=O)c1ccc[n+](COC(=O)N(C)C2(c3ccccc3Cl)CCCCC2=O)c1.[Cl-] (racemic) [9b, KTM-CO2CH2-nicotinoyl-Sar(Et)]
- % AUC0-4 hr, relative oral bioavailability of ketamine vs study comparator (Ketamine HCl) [1, 3]: 123%
- % Cmax, relative oral bioavailability of ketamine vs study comparator (Ketamine HCl) [1, 3]: 124%
- % AUC0-4 hr, relative oral bioavailability of norketamine vs study comparator (Ketamine HCl) [1, 4]: 62.7%
- % Cmax, relative oral bioavailability of norketamine vs study comparator (Ketamine HCl) [1, 4]: 66.9%
- % Exposure Ratio Ketamine:Norketamine, AUC0-4 hr [1, 5]: 1.96
- % Exposure Ratio Ketamine:Norketamine, Cmax [1, 5]: 1.85
- norketamine exposure relative to ketamine exposure compared to unconjugated ketamine ([1]; oral): reduced norketamine exposure relative to ketamine exposure
- % AUC0-1 hr, relative intranasal bioavailability of ketamine vs study comparator (Ketamine HCl) ([2]; analyte ketamine, intranasal, mean conjugate parameter/mean comparator parameter): 68.1%
- % Cmax, relative intranasal bioavailability of ketamine vs study comparator (Ketamine HCl) ([2]; analyte ketamine, intranasal, mean conjugate parameter/mean comparator parameter, 10k: time course stopped at 0.5 hours): 62.0%
- % AUC0-1 hr, relative intranasal bioavailability of norketamine vs study comparator (Ketamine HCl) ([2]; analyte norketamine, intranasal, mean conjugate parameter/mean comparator parameter): 39.5%
- % Cmax, relative intranasal bioavailability of norketamine vs study comparator (Ketamine HCl) ([2]; analyte norketamine, intranasal, mean conjugate parameter/mean comparator parameter, 10k: time course stopped at 0.5 hours): 37.1%
- % Exposure Ratio PO:IN, Cmax ([2]; ketamine % parameter PO/ketamine % parameter IN): 2.00
- % Exposure Ratio PO:IN, AUC ([2]; ketamine % parameter PO/ketamine % parameter IN, AUC0-4 h for PO and AUC0-1 h for IN): 1.80

Compound: CC[C@H](C)[C@H](NC(=O)c1ccc[n+](COC(=O)N(C)C2(c3ccccc3Cl)CCCCC2=O)c1)C(=O)O (stereo partly shown) [10e, KTM-CO2CH2-nicotinoyl-Ile]
- norketamine exposure relative to ketamine exposure compared to unconjugated ketamine ([1]; oral): reduced norketamine exposure relative to ketamine exposure

Compound: CSCC[C@H](NC(=O)c1ccc[n+](COC(=O)N(C)C2(c3ccccc3Cl)CCCCC2=O)c1)C(=O)O (stereo partly shown) [10s, KTM-CO2CH2-nicotinoyl-Met]
- norketamine exposure relative to ketamine exposure compared to unconjugated ketamine ([1]; oral): reduced norketamine exposure relative to ketamine exposure

Compound: CN(C(=O)OC[n+]1cccc(C(=O)N2CCC[C@H]2C(=O)O)c1)C1(c2ccccc2Cl)CCCCC1=O (stereo partly shown) [10f, KTM-CO2CH2-nicotinoyl-Pro]
- norketamine exposure relative to ketamine exposure compared to unconjugated ketamine ([1]; oral): reduced norketamine exposure relative to ketamine exposure

Compound: NC1(c2ccccc2Cl)CCCCC1=O (stereo not shown) [norketamine]
- NMDA receptor antagonist potency compared to ketamine (NMDA receptor; statement in words): less potent antagonist

Compound: CN(C(=O)OC[n+]1cccc(C(=O)N[C@@H](CCCCN)C(=O)O)c1)C1(c2ccccc2Cl)CCCCC1=O (stereo partly shown) [10g, KTM-CO2CH2-nicotinoyl-Lys]
- release of ketamine compared to unconjugated ketamine [1]: extended or delayed release

Compound: CN(C(=O)OC[n+]1cccc(C(=O)N[C@@H](CCC(N)=O)C(=O)O)c1)C1(c2ccccc2Cl)CCCCC1=O (stereo partly shown) [10k, KTM-CO2CH2-nicotinoyl-Gln]
- norketamine exposure relative to ketamine exposure compared to unconjugated ketamine ([1]; oral): reduced norketamine exposure relative to ketamine exposure

Compound: CN[C@]1(c2ccccc2Cl)CCCCC1=O (single isomer, unassigned) [S(+) isomer, reference compound]
- NMDA receptor antagonist potency relative to the R(−) isomer (NMDA receptor; background statement): approximately three to four times that of the R(−) isomer
